Molecules are shown by their SMILES.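 Where inhibition never reached the appropriate level, the endpoint shown equals the highest concentration tested. Otherwise, values were interpolated linearly from a five-concentration, 48-hour dose response in 96-well plates. Here, GI50 denotes the concentration required for 50% inhibition of growth. TGI denotes the concentration required for complete inhibition of growth.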

One assay deals with IGROV1 ovarian. In words: NCI anticancer screen, dose series, 48 h.
As for `O=C1c2c(c3c4ccccc4[nH]c3c3ccc4ccccc4c23)C(=O)N1CCN1CCNCC1`, the GI50 was 1.46 µM and the TGI stood at 2.84 µM.

Molecule `COc1cc2c(c(OC)c1OC)-c1ccc(SC)c(=O)cc1C(NC(=O)c1ccccc1)CC2` (stereo not given) had a TGI of 49.6 µM.

For `O=C1CCC(N2Cc3cc(CNC(=O)C(F)(F)c4ccc(Cl)cc4)ccc3C2=O)C(=O)N1` (stereo not given), the GI50 is 1.78 µM and the TGI is more than 100 µM.

On to `O=C(O)CN1CCN(CC(=O)O)CC(=O)[O][Hg][O]C(=O)C1`, for which the GI50 is 7.29 µM and the TGI is 28.4 µM.

Consider `O=C1/C(=C/c2ccccc2[N+](=O)[O-])Cc2ccccc21`, for which the GI50 was 1.25 µM and the TGI worked out at 8.59 µM.

Take `O=C(OCc1ccc2ccccc2n1)c1cn(C2CC2)c2cc(N3CCN(Cc4ccc5ccccc5n4)CC3)c(F)cc2c1=O`: the GI50 was more than 93.2 µM and the TGI was more than 100 µM.

Molecule `O=C(O)c1ccc(C(=O)c2ccccc2)c(C(=O)O)c1` registered a TGI of more than 100 µM.

Consider `Cc1ccc(/C=N\NC(=O)c2[nH]c3ccc(F)cc3c2-c2ccccc2)cc1`, for which the GI50 was 0.0336 µM and the TGI came out at 10.7 µM.

For another assay, the system named is SK-OV-3 ovarian. In words: NCI anticancer screen, dose series, 48 h.
Take `O=C1c2c(c3c4ccccc4[nH]c3c3ccc4ccccc4c23)C(=O)N1CCN1CCNCC1`: the GI50 is 1.86 µM and the TGI was 3.58 µM.

`COc1cc2c(c(OC)c1OC)-c1ccc(SC)c(=O)cc1C(NC(=O)c1ccccc1)CC2` (stereo not given) registered a TGI of 1.94 µM.

For the molecule `O=C1CCC(N2Cc3cc(CNC(=O)C(F)(F)c4ccc(Cl)cc4)ccc3C2=O)C(=O)N1` (stereo not given), the GI50 is more than 100 µM and the TGI is more than 100 µM.

On to `O=C(O)CN1CCN(CC(=O)O)CC(=O)[O][Hg][O]C(=O)C1`, for which the GI50 was more than 92.2 µM and the TGI is more than 100 µM.

For `O=C1/C(=C/c2ccccc2[N+](=O)[O-])Cc2ccccc21`, the GI50 is 6.86 µM and the TGI came to 38.4 µM.

`O=C(OCc1ccc2ccccc2n1)c1cn(C2CC2)c2cc(N3CCN(Cc4ccc5ccccc5n4)CC3)c(F)cc2c1=O`: the GI50 was more than 80.7 µM and the TGI is more than 100 µM.

`O=C(O)c1ccc(C(=O)c2ccccc2)c(C(=O)O)c1` gave a TGI of more than 100 µM.

Take `Cc1ccc(/C=N\NC(=O)c2[nH]c3ccc(F)cc3c2-c2ccccc2)cc1`: the GI50 was 0.0307 µM and the TGI stood at 2.19 µM.

For another assay, the system named is MDA-MB-435. In words: NCI anticancer screen, dose series, 48 h.
With `O=C1c2c(c3c4ccccc4[nH]c3c3ccc4ccccc4c23)C(=O)N1CCN1CCNCC1`, the GI50 was 1.67 µM and the TGI stood at 3.11 µM.

Regarding `COc1cc2c(c(OC)c1OC)-c1ccc(SC)c(=O)cc1C(NC(=O)c1ccccc1)CC2` (stereo not given), the TGI was less than 0.01 µM.

`O=C1CCC(N2Cc3cc(CNC(=O)C(F)(F)c4ccc(Cl)cc4)ccc3C2=O)C(=O)N1` (stereo not given): the GI50 is more than 100 µM and the TGI is more than 100 µM.

For the molecule `O=C(O)CN1CCN(CC(=O)O)CC(=O)[O][Hg][O]C(=O)C1`, the GI50 is 16.2 µM and the TGI was 30.5 µM.

Turning to `O=C1/C(=C/c2ccccc2[N+](=O)[O-])Cc2ccccc21`, the GI50 is 3.06 µM and the TGI stood at 11.8 µM.

As for `O=C(OCc1ccc2ccccc2n1)c1cn(C2CC2)c2cc(N3CCN(Cc4ccc5ccccc5n4)CC3)c(F)cc2c1=O`, the GI50 is 39.4 µM and the TGI is more than 100 µM.

Turning to `O=C(O)c1ccc(C(=O)c2ccccc2)c(C(=O)O)c1`, the TGI was more than 100 µM.

In the case of `Cc1ccc(/C=N\NC(=O)c2[nH]c3ccc(F)cc3c2-c2ccccc2)cc1`, the GI50 was 0.0217 µM and the TGI is 0.0495 µM.

For a further assay, the system named is COLO 205 colon. In words: NCI anticancer screen, dose series, 48 h.
As for `O=C1c2c(c3c4ccccc4[nH]c3c3ccc4ccccc4c23)C(=O)N1CCN1CCNCC1`, the GI50 is 1.78 µM and the TGI came to 3.6 µM.

As to `COc1cc2c(c(OC)c1OC)-c1ccc(SC)c(=O)cc1C(NC(=O)c1ccccc1)CC2` (stereo not given), the TGI was less than 0.01 µM.

On to `O=C1CCC(N2Cc3cc(CNC(=O)C(F)(F)c4ccc(Cl)cc4)ccc3C2=O)C(=O)N1` (stereo not given), for which the GI50 is 0.721 µM and the TGI is more than 100 µM.

As for `O=C(O)CN1CCN(CC(=O)O)CC(=O)[O][Hg][O]C(=O)C1`, the GI50 is 17.8 µM and the TGI is 32.5 µM.

Consider `O=C1/C(=C/c2ccccc2[N+](=O)[O-])Cc2ccccc21`, for which the GI50 was 1.3 µM and the TGI amounted to 2.57 µM.

Take `O=C(OCc1ccc2ccccc2n1)c1cn(C2CC2)c2cc(N3CCN(Cc4ccc5ccccc5n4)CC3)c(F)cc2c1=O`: the GI50 is 49.6 µM and the TGI is more than 100 µM.

The molecule `O=C(O)c1ccc(C(=O)c2ccccc2)c(C(=O)O)c1` had a TGI of more than 100 µM.

Turning to `Cc1ccc(/C=N\NC(=O)c2[nH]c3ccc(F)cc3c2-c2ccccc2)cc1`, the GI50 was 0.0186 µM and the TGI amounted to 0.0343 µM.

A further assay has as its system SR leukemia. The assay can be described thus: NCI anticancer screen, dose series, 48 h.
For the molecule `O=C1c2c(c3c4ccccc4[nH]c3c3ccc4ccccc4c23)C(=O)N1CCN1CCNCC1`, the GI50 is 0.598 µM and the TGI came to 2.63 µM.

Turning to `COc1cc2c(c(OC)c1OC)-c1ccc(SC)c(=O)cc1C(NC(=O)c1ccccc1)CC2` (stereo not given), the TGI worked out at 27 µM.

In the case of `O=C1CCC(N2Cc3cc(CNC(=O)C(F)(F)c4ccc(Cl)cc4)ccc3C2=O)C(=O)N1` (stereo not given), the GI50 was 54.1 µM and the TGI was more than 100 µM.

In the case of `O=C(O)CN1CCN(CC(=O)O)CC(=O)[O][Hg][O]C(=O)C1`, the GI50 was 14.8 µM and the TGI worked out at 38.6 µM.

`O=C1/C(=C/c2ccccc2[N+](=O)[O-])Cc2ccccc21`: the GI50 is 0.495 µM and the TGI was more than 100 µM.

With `O=C(OCc1ccc2ccccc2n1)c1cn(C2CC2)c2cc(N3CCN(Cc4ccc5ccccc5n4)CC3)c(F)cc2c1=O`, the GI50 is more than 100 µM and the TGI was more than 100 µM.

`O=C(O)c1ccc(C(=O)c2ccccc2)c(C(=O)O)c1` gave a TGI of more than 100 µM.

Turning to `Cc1ccc(/C=N\NC(=O)c2[nH]c3ccc(F)cc3c2-c2ccccc2)cc1`, the GI50 was 0.0323 µM and the TGI is more than 64.2 µM.

(Values after PubChem BioAssay (NCI).)
